According to ChEMBL document CHEMBL1133355, “Pyrrolo[3,2,1-ij]quinoline derivatives, a 5-HT2c receptor agonist with selectivity over the 5-HT2a receptor: potential therapeutic applications for epilepsy and obesity” (Bioorg Med Chem Lett, 2000):

How the values were obtained:
[1] = Binding ratio of compound to 5-HT2a to that of 5-HT2c was determined
[2] = target: T1, 5-hydroxytryptamine receptor 2A (Homo sapiens, UniProt P28223); assay: In vitro binding affinity towards human 5-hydroxytryptamine 2A receptor expressed in HEK293 cells was determined using [3H]ketanserin as radioligand; format: cell-based
[3] = target: T1, 5-hydroxytryptamine receptor 2A; assay: Functional agonist activity of compound was determined by fluorescence-based assay measuring intracellular calcium mobilization for 5-HT2a receptor cell line
[4] = target: T2, 5-hydroxytryptamine receptor 2C (Homo sapiens, UniProt P28335); assay: In vitro binding affinity towards human 5-hydroxytryptamine 2C receptor expressed in HEK293 cells was determined using [3H]mesulergine as radioligand; format: cell-based
T2 sequence (P28335 whole entry): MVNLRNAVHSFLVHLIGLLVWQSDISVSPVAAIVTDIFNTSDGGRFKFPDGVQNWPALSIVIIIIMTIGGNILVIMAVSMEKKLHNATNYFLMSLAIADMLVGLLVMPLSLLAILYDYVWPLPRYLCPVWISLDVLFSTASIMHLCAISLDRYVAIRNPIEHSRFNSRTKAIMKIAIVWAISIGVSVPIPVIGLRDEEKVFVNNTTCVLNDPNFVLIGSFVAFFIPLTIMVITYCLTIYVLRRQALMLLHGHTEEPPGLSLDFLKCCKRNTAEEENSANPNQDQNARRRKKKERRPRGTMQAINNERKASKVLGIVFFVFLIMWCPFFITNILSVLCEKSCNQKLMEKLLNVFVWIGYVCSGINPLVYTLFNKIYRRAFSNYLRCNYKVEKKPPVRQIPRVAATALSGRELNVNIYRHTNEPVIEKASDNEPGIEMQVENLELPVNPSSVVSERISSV

[5] = target: T2, 5-hydroxytryptamine receptor 2C; assay: Functional agonist activity of compound was determined by fluorescence-based assay measuring intracellular calcium mobilization for 5-HT2c receptor cell line
[6] = target: T1, 5-hydroxytryptamine receptor 2A; assay: Functional antagonist activity of compound was determined by fluorescence-based assay measuring intracellular calcium mobilization for 5-HT2a receptor cell line

T1 sequence (P28223 whole entry): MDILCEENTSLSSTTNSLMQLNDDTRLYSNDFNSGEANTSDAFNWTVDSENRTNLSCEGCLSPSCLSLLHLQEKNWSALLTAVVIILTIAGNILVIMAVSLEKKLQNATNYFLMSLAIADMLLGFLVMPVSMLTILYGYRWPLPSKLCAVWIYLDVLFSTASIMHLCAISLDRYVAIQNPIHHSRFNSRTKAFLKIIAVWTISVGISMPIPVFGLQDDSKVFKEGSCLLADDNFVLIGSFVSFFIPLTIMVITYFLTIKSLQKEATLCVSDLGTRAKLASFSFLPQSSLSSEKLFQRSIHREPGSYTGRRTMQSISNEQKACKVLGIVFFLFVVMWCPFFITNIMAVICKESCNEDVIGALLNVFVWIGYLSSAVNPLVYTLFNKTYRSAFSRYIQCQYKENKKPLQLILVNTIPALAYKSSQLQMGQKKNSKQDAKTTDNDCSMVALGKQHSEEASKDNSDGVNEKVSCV

SMILES | Ratio [1] | Ki [2] [nM] | EC50 [3] [nM] | Ki [4] [nM] | EC50 [5] [nM] | EC50 [6] [nM]
CC1CCc2cc(F)cc3c(CCN)cn1c23 (centres undefined) | 130 | 2340 | 269 | 18 | 5.7 | –
Cc1c(CCN)c2cc(F)cc3c2n1C(C)CC3 (centres undefined) | 4.9 | 954 | – | 194 | 41 | –
NCCc1cn2c3c(cccc13)CCC2 | 19.4 | 794 | 145 | 41 | 0.2 | –
NCCc1cn2c3c(cc(Cl)cc13)SCC2 | 13.4 | 631 | 348 | 47 | 0.23 | –
Cc1c(CCN)c2cccc3c2n1CCC3 | 3 | 676 | – | 225 | 9 | –
CNCCc1cn2c3c(cc(F)cc13)CCC2C (centres undefined) | 44 | 1460 | > 10000 | 33 | 180 | 1100
